Values joined by “and” are separate entries in the source; they are usually repeats but may differ in a detail not shown here. Equal values may be shown once.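 Results reflect a 48-hour exposure of cells in 96-well plates to compound at five concentrations. GI50: concentration for 50% inhibition of growth. The concentration for full growth arrest is given as TGI.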
Columns and labels:
Assay in all cases: growth of human tumour cells (NCI), 48 h
[1] = tested on: HOP-62 NSCLC
[2] = tested on: SK-OV-3 ovarian
[3] = tested on: HT29 colon
[4] = tested on: CAKI-1 renal
[5] = tested on: OVCAR-4 ovarian
[6] = tested on: MALME-3M melanoma
[7] = tested on: ACHN renal
[8] = tested on: HOP-92 NSCLC
[9] = tested on: SF-268 CNS
[10] = tested on: SF-295 CNS

SMILES	TGI [1]	TGI [2]	TGI [3]	TGI [4]	TGI [5]	TGI [6]	TGI [7]	TGI [8]	TGI [9]	TGI [10]	GI50 [1]	GI50 [2]	GI50 [3]	GI50 [4]	GI50 [5]	GI50 [6]	GI50 [7]	GI50 [9]	GI50 [10]	GI50 [8]
COC(=O)c1c[nH]cc1CCc1c[nH]cc1C(=O)OC	> 100 µM	> 100 µM	> 100 µM	> 100 µM	> 100 µM	> 100 µM	> 100 µM	> 100 µM	> 100 µM	> 100 µM	–	–	–	–	–	–	–	–	–	–
Cc1cc2c(c3c1c1ccccc1n3C)C(=O)C=CC2=O	> 100 µM	> 100 µM	> 70.2 µM	> 70.2 µM	30.6 µM	> 82.6 µM	> 64.6 µM	31.4 µM	70.5 µM	> 88.4 µM	–	–	–	–	–	–	–	–	–	–
O=C(O)c1ccc(S(=O)(=O)c2ccccc2)c([N+](=O)[O-])c1	> 100 µM	> 100 µM	> 100 µM	> 100 µM	> 100 µM	> 100 µM	> 100 µM	> 100 µM	> 100 µM	> 100 µM	–	–	–	–	–	–	–	–	–	–
COC(=O)/C=C/c1cc(O)c2c(c1)C(C(=O)OC)C(c1ccc(O)c(O)c1)O2 (centres undefined)	> 72.4 µM and 46.5 µM	71.7 µM and 35.7 µM	> 57.6 µM and 24.1 µM	> 100 µM	62.2 µM and > 75.9 µM	62 µM and 86.1 µM	43.6 µM and > 82.3 µM	> 55 µM and 9.3 µM	> 89.8 µM	15.4 µM and 9.85 µM	0.493 µM and 0.137 µM	1 µM and 0.585 µM	3.89 µM and 1.75 µM	0.644 µM and 0.393 µM	0.34 µM and 0.353 µM	12.5 µM and 17.7 µM	0.183 µM and 0.0676 µM	0.721 µM and 0.0833 µM	0.344 µM and 0.143 µM	–
O=C(Nc1ccc(S(=O)(=O)Nc2nccs2)cc1)c1cccnc1Nc1cccc(Cl)c1	31.3 µM	58.8 µM	30.3 µM	52.2 µM	69.3 µM	48.1 µM	96.6 µM	36.5 µM	31.5 µM	43.5 µM	16.2 µM	20.8 µM	16.7 µM	17 µM	16.3 µM	16.9 µM	18.1 µM	12.8 µM	16.5 µM	11.2 µM
COc1cc2oc(=O)cc(C)c2cc1[N+](=O)[O-]	> 100 µM	> 100 µM	> 57.8 µM	> 51.5 µM	84.1 µM	49.5 µM	> 100 µM	57.1 µM	45 µM	> 100 µM	–	–	–	–	–	–	–	–	–	–
O=C(Nc1ccc(Cl)c([N+](=O)[O-])c1)Nc1nc2ccccc2s1	12 µM	8.46 µM	11.6 µM	6.46 µM	26 µM	7.36 µM	12.8 µM	7.06 µM	16.6 µM	5.41 µM	3.21 µM	2.6 µM	3.51 µM	2.08 µM	4.21 µM	2.62 µM	3.34 µM	4.49 µM	2.01 µM	2.34 µM
O=C1/C(=C/c2cccc([N+](=O)[O-])c2)COc2ccc(O)c(O)c21	4.62 µM	12.6 µM	19.1 µM	2.59 µM	2.8 µM	3.04 µM	2.68 µM	8.22 µM	4.3 µM	11.2 µM	1.93 µM	3.41 µM	2.89 µM	1.27 µM	1.46 µM	1.49 µM	1.36 µM	1.79 µM	3.27 µM	2.24 µM
COc1cc(/C=C(/C)[N+](=O)[O-])ccc1O	6.01 µM	20.4 µM and 16.9 µM	6.09 µM	6.07 µM and 3.26 µM	7.6 µM and 3.18 µM	4.08 µM and 3.58 µM	5.44 µM and 4 µM	4.4 µM and 4.28 µM	6.94 µM and 4.51 µM	22.4 µM and 8.89 µM	2.46 µM	8.15 µM and 4.78 µM	2.63 µM	2.17 µM and 1.38 µM	2.62 µM and 1.69 µM	2 µM and 1.53 µM	2.38 µM and 1.9 µM	2.73 µM and 1.92 µM	9.45 µM and 2.77 µM	1.62 µM and 1.84 µM
Oc1c(CN2CCC(N3CCOCC3)CC2)cc(Cc2cc(CN3CCC(N4CCOCC4)CC3)c(O)c3ncccc23)c2cccnc12	18.4 µM	8.96 µM	22.3 µM	21.2 µM	> 100 µM	26.5 µM	12.9 µM	36.6 µM	38.1 µM	3.13 µM	0.356 µM	0.758 µM	0.709 µM	0.643 µM	0.434 µM	4.22 µM	0.481 µM	0.343 µM	0.549 µM	4.16 µM
C[Si](C)(C)C#CCO[Si](C)(C)C	> 100 µM	> 100 µM	> 100 µM	> 100 µM	> 100 µM	> 100 µM	> 100 µM	44.3 µM	> 89.3 µM	> 100 µM	–	–	–	–	–	–	–	–	–	–
O=C1C2C(C(=O)N1O)N(Cc1ccccc1)C(=O)N2Cc1ccccc1 (centres undefined)	> 100 µM	> 100 µM	> 100 µM	> 100 µM	> 100 µM	> 100 µM	> 100 µM	> 100 µM	> 100 µM	> 100 µM	–	–	–	–	–	–	–	–	–	–
CCCN1C(=O)C/C(=C\C(C)=O)Nc2ccccc21	> 100 µM	> 100 µM	> 100 µM	> 100 µM	> 100 µM	> 100 µM	> 100 µM	> 100 µM	> 100 µM	> 100 µM	–	–	–	–	–	–	–	–	–	–
Oc1ccc2ccccc2c1C=NCCCN=Cc1c(O)ccc2ccccc12	47.4 µM	67.5 µM	63.3 µM	49.5 µM	> 100 µM	29.7 µM	34.9 µM	59.9 µM	> 100 µM	42.1 µM	22.6 µM	24.8 µM	19.7 µM	15.7 µM	35.9 µM	6.96 µM	5.73 µM	16.3 µM	9.96 µM	8.93 µM
CC(C)C[C@H](NC(=O)[C@H](Cc1ccccc1)n1ccc(N2CCCCC2)cc1=O)B(O)O	9.29 µM	71.5 µM	> 100 µM	10 µM	> 100 µM	7.95 µM	> 100 µM	5.61 µM	3.85 µM	4.51 µM	2.63 µM	2.36 µM	0.449 µM	0.467 µM	2.06 µM	0.682 µM	0.406 µM	0.699 µM	0.585 µM	1.34 µM

Source: PubChem BioAssay (NCI)
